The NIST ThermoML archive (doi:10.1016/j.jct.2013.07.025)
± gives the expanded uncertainty stated by the source.

How the values were obtained:
[1] = Crystal; DTA
[2] = Molar enthalpy of transition or fusion; details: Crystal; DSC

Normal melting temperature [1] [°C]	Molar enthalpy of transition or fusion [2] [kcal/mol]	Structure (SMILES)
67.60 ± 0.96	3.94 ± 0.454	CC(=O)[O-].C[N+](C)(C)CCO [choline acetate]
147.40 ± 0.96	8.87 ± 0.502	C[N+](C)(C)CCOC(=O)CCC(=O)O.[Cl-] [hydrogen choline chloride succinate]
